Data taken from patent publication US20220144775A1, “HYDRAZIDE COMPOUND AND KINASE INHIBITOR” (NISSAN CHEMICAL CORPORATION, priority 2019, published 2022).

Legend:
[1] = target: T1, LATS1 (Homo sapiens, UniProt O95835); assay: Kinase inhibitory activity against LATS1 (ADP quantification); type: biochemical; settings: ATP 400 μM, read-out: kinase inhibitory rate; for inhibition at 0.1 µM: final concentration 100 nM; for inhibition at 1 µM: final concentration 1000 nM
T1 construct: purchased Carna Biosciences
T1 sequence (O95835 1-1130): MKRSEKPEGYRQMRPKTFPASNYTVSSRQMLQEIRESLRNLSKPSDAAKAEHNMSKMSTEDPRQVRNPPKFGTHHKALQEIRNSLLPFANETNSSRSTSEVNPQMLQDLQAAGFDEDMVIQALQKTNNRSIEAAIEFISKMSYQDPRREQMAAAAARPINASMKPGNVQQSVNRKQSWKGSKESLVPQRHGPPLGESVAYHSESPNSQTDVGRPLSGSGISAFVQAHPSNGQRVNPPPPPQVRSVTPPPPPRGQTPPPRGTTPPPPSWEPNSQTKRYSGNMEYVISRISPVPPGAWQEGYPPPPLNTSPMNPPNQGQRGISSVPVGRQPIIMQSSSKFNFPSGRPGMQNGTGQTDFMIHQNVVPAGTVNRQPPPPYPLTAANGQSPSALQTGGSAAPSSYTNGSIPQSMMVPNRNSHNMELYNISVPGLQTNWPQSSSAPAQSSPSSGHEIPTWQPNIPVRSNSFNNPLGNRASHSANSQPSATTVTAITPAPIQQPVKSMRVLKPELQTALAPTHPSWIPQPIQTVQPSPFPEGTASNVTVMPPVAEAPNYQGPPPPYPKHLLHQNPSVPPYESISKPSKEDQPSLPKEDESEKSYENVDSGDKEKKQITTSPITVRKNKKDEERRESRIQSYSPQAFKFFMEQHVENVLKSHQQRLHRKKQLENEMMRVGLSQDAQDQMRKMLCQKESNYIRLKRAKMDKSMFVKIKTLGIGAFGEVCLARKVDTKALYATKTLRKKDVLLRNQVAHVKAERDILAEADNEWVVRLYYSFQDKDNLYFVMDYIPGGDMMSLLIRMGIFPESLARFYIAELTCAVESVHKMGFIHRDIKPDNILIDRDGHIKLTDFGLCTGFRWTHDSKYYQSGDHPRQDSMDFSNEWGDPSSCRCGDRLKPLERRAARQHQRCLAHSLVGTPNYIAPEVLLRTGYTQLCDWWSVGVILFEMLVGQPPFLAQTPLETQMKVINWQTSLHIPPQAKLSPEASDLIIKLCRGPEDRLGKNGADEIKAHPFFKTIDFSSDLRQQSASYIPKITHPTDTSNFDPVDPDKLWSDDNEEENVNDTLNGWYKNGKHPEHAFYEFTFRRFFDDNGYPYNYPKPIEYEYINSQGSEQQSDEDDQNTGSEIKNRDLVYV
Procedure: (§1) Evaluation of the inhibitory activity (calculation of kinase inhibitory rate) of the compound of the present invention against LATS1 and LATS2 (manufactured by Carna Biosciences) was performed. The activity was measured using the Kinase Assay method described below. The test concentration of the compound of the present invention was set such that the final concentration was 100 nM or 1000 nM.
(§2) As the analysis method of the data, the mean signal of the control well containing reaction components other than the compound of the present invention was set to 0% inhibition, the mean signal without enzyme addition was set to 100% inhibition, and the inhibition rate was calculated from the mean signal of 2 wells of each compound.
(§3) 2 μL of a compound of the present invention solution at 2.5-fold concentration, 1 μL of substrate at 5-fold concentration (SGKtide: NH2-CKKRNRRLSVA-COOH, manufactured by SignalChem), ATP (manufactured by Sigma-Aldrich), MgCl2 (manufactured by FUJIFILM Wako Pure Chemical Corporation) solution (final concentration 10 μM, 400 μM and 5 mM, respectively), and 2 μL of kinase solution at 2.5-fold concentration (final concentration of LATS1 or LATS2 5 μg/mL), each prepared with assay buffer (20 mM HEPES, 0.01% Triton X-100, 2 mM DTT, 50 μg/mL BSA, pH 7.5), were mixed in the wells of a polypropylene 384-well plate (manufactured by Greiner Bio-One, #784900) and reacted at room temperature for 5 hr. To the solution was added 5 μL detection solution [Fluorospark (registered trade mark) Kinase/ADP Multi-Assay Kit; manufactured by FUJIFILM Wako Pure Chemical Corporation], and the mixture was reacted at room temperature for 30 min. Successively, 5 μL of a reaction quenching liquid [Fluorospark (registered trade mark) Kinase/ADP Multi-Assay Kit; manufactured by FUJIFILM Wako Pure Chemical Corporation] was added to discontinue the reaction. Thereafter, the ADP concentration of the reaction solution was quantified by EnSpire (manufactured by PerkinElmer) to detect the kinase reaction.

[2] = target: T2, LATS2 (Homo sapiens, UniProt Q9NRM7); assay: Kinase inhibitory activity against LATS2 (ADP quantification); type: biochemical; settings: ATP 400 μM, read-out: kinase inhibitory rate; for inhibition at 0.1 µM: final concentration 100 nM; for inhibition at 1 µM: final concentration 1000 nM
T2 construct: purchased Carna Biosciences
T2 sequence (Q9NRM7 1-1088): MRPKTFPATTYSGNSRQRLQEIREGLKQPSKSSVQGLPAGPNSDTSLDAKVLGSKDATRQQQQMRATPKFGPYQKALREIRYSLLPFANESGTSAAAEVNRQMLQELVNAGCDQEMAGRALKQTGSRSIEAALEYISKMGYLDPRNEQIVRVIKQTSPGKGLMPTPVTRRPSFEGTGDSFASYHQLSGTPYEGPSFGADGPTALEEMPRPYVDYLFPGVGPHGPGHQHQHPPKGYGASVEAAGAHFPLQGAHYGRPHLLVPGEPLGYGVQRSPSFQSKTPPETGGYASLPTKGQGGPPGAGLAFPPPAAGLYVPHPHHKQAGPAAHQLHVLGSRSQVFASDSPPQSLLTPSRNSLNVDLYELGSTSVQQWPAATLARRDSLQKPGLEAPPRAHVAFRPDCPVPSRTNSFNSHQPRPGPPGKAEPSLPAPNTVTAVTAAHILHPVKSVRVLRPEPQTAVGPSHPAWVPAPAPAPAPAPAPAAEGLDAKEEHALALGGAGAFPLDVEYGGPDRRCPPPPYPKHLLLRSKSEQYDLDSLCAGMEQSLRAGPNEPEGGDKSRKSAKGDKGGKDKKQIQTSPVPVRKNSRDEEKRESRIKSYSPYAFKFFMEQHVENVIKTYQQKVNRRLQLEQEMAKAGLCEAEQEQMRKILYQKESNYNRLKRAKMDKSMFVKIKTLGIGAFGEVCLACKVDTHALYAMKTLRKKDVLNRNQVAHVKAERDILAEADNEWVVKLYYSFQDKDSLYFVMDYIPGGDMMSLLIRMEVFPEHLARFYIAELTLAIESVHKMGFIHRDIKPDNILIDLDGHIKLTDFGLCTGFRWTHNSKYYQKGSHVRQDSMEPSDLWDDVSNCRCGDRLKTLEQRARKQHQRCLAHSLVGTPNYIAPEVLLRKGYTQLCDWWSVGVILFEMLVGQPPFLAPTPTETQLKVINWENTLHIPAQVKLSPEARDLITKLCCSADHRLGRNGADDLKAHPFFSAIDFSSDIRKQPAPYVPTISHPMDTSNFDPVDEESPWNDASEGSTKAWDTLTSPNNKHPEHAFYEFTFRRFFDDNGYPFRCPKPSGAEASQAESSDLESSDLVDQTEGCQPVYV
Procedure: as §1, §2, §3

[3] = tested on: YAP; assay: YAP phosphorylation inhibitory action in SKOV3 (HTRF); type: cell-based, human; settings: 10 μM, 1 hr, non-treatment 100%
Procedure: Human ovarian cancer cell line SKOV3 (manufactured by DS Pharma Biomedical Co., Ltd.) was precultured using a 15% FBS-containing McCoy's 5a medium (manufactured by Sigma-Aldrich) (single layer culture). The above-mentioned cells in the logarithmic growth phase were washed with PBS. A 0.25% (w/v) trypsin-1 mmol/L ethylenediaminetetraacetic acid (EDTA) solution (manufactured by FUJIFILM Wako Pure Chemical Corporation) was added and the adherent cells were incubated at 37° C. for 3 min and detached. The above-mentioned medium was added, and the cells were centrifuged and resuspended in the same medium.
According to the method of patent document 1 (WO 2014/017513), a composition of 10% FBS-containing DMEM medium (Phenol-red free, manufactured by FUJIFILM Wako Pure Chemical Corporation) containing 0.015% (w/v) deacylated gellan gum (KELCOGEL CG-LA, manufactured by SANSHO Co., Ltd.) was prepared using FCeM-series Preparation Kit (manufactured by FUJIFILM Wako Pure Chemical Corporation). Then, various cells prepared above were suspended in the above-mentioned medium composition (3D culture conditions) added with deacylated gellan gum or a medium without the addition (2D culture conditions), and seeded on a 50 μL/well (manufactured by Corning Incorporated, a 96 well flat bottom plate, #3585, 2D culture conditions) or 25 μL/well (manufactured by Corning Incorporated, 96 well low adhesion flat bottom plate, #3474) at 100000 cells/well. The plate was allowed to stand at 37° C. in a 5% CO2 incubator, and the compound of the present invention diluted with the medium at 2 or 6 times the final concentration, DMSO, or the medium alone was added to the plate 3 hr after the seeding at 50 μL/well (2D culture conditions) or 5 μL/well (3D culture conditions) to make the final concentration of each compound 10 μM. After culture at 37° C. in a 5% CO2 incubator for 1 hr, the supernatant was aspirated, supplemented Lysis buffer (1-fold concentration, manufactured by Cisbio, YAP-total kit or YAP phospho-S27 kit) (50 μL) was added under 2D culture conditions, and supplemented Lysys buffer (4-fold concentration) (10 μL) was added to the culture supernatant under 3D conditions, and the mixture was stirred by a plate shaker for 30 min. Thereafter, the plate was centrifuged, 16 μL of the supernatant was transferred to a 384-well white plate (Corning, #4512), and each antibody solution (pYAP d2 antibody or Total-YAP d2 antibody, and pYAP Cryptate antibody or Total-YAP Cryptate antibody) included in the kit was added at 4 μL/well in total, and the mixture was allowed to stand at room temperature overnight. As a blank control, pYAP Cryptate antibody or Total-YAP Cryptate antibody alone was added to cells free of stimulation with compound and the mixture was treated in the same manner. The next day, the wavelengths at 665 nm and 615′ nm were measured in the HTRF mode of EnVision (manufactured by PerkinElmer).
The obtained signal was calculated as follows. Ratio=signal (665 nm)/signal (615 nm)×10000, ΔR=Signal(Ratio)−Background fluorescence, and the relative phosphorylated YAP amount or total YAP amount for each compound when ΔR of the compound non-addition group (non-treatment) is 100% is shown in Tables 7 and 8 (2D culture), and Tables 9 and 10 (3D culture). From the results, it was shown that the compound of the present zo invention has a YAP phosphorylation inhibitory action under both 2D and 3D culture conditions.

SMILES | inhibition at 0.1 µM [1] [%] | inhibition at 1 µM [1] [%] | inhibition at 0.1 µM [2] [%] | inhibition at 1 µM [2] [%] | phosphorylated YAP amount (%) ([3]; 2D culture conditions) | total YAP amount (%) ([3]; 2D culture conditions) | phosphorylated YAP amount (%) ([3]; 3D culture conditions) | total YAP amount (%) ([3]; 3D culture conditions)
CC/C(=N\NC(=O)[C@@H](C)Nc1cncnc1)c1ccc(O)c(C)c1O [A-017, (R,E)-N′-[1-(2,4-dihydroxy-3-methylphenyl)propylidene]-2-(pyrimidin-5-ylamino)propanehydrazide] | ≥ 40 | ≥ 40 | ≥ 40 | ≥ 40 | – | – | – | –
CC/C(=N\NC(=O)[C@@H](C)Nc1cncc(F)c1)c1ccc(O)c(C)c1O [A-007R] | – | – | – | – | 8 | 98 | 15 | 108
CC/C(=N\NC(=O)[C@@H](C)Nc1ccc(Cl)nc1)c1ccc(O)c(C)c1O [A-012] | – | – | – | – | 19 | 87 | 23 | 103
CC/C(=N\NC(=O)C(C)Oc1cccnc1)c1ccc(O)c(C)c1O (stereo not shown) [C-001, (E)-N′-(1-(2,4-dihydroxy-3-methylphenyl)propylidene)-2-(pyridin-3-yloxy)propanehydrazide] | – | ≥ 40 | – | ≥ 40 | – | – | – | –
CC/C(=N\NC(=O)NCc1cccnc1)c1ccc(O)c(C)c1O [B-001, (E)-2-(1-(2,4-dihydroxy-3-methylphenyl)propylidene)-N-(pyridin-3-ylmethyl)hydrazine-1-carboxamide] | – | ≥ 40 | – | ≥ 40 | – | – | – | –
CC/C(=N\NC(=O)[C@@H](C)Nc1ccc(F)nc1)c1ccc(O)c(C)c1O [A-010] | – | – | – | – | 11 | 94 | 20 | 114
CC/C(=N\NC(=O)CNc1ccccn1)c1ccc(O)c(C)c1O [A-001, (E)-N′-(1-(2,4-dihydroxy-3-methylphenyl)propylidene)-2-(pyridin-2-ylamino)acetohydrazide] | ≥ 40 | ≥ 40 | ≥ 40 | ≥ 40 | – | – | – | –
CC/C(=N\NC(=O)CNc1cccnc1)c1ccc(O)c(C)c1O [A-002] | – | – | – | – | 50 | 85 | 78 | 100
CC/C(=N\NC(=O)[C@@H](C)Nc1cncc(C(F)(F)F)c1)c1ccc(O)c(C)c1O [A-013] | – | – | – | – | 42 | 91 | 49 | 96
CC/C(=N\NC(=O)[C@@H](C)Nc1cncc(Cl)c1)c1ccc(O)c(C)c1O [A-011] | – | – | – | – | 46 | 91 | 55 | 98
CC/C(=N\NC(=O)C(CC)Nc1cccnc1)c1ccc(O)c(C)c1O (stereo not shown) [A-005] | – | – | – | – | 27 | 94 | 30 | 102
